≈ marks a conversion by molar mass, not a printed value. Where “and” joins values, the source holds several entries; their conditions need not be identical. Identical values can stand only once.
Legend:
Experiment in all cases: ≥ marks a high value that may be exact or a test limit, other limits are often not marked, values filed in µg/mL are converted to µM
[1] = system: Bifidobacterium longum subsp. infantis
Escherichia coli = system: Escherichia coli
Staphylococcus aureus = system: Staphylococcus aureus
Bacillus subtilis DELTA = system: Bacillus subtilis DELTA
Candida parapsilosis = system: Candida parapsilosis
[2] = system: Escherichia coli DH5alpha
[3] = system: Pseudomonas aeruginosa PAO1
[4] = system: Zymomonas mobilis ATCC 10988
Bacillus megaterium Bm11 = system: Bacillus megaterium Bm11
Candida albicans = system: Candida albicans
Cryptococcus neoformans = system: Cryptococcus neoformans
Enterococcus faecium = system: Enterococcus faecium
[5] = system: Escherichia coli ATCC 25922
Escherichia coli ML-35 = system: Escherichia coli ML-35
[6] = system: Escherichia coli O18:K1:H7 Bort
[7] = system: Salmonella enterica subsp. enterica serovar Typhimurium ATCC 14028
[8] = system: Serratia marcescens ATCC 8100
Serratia marcescens = system: Serratia marcescens
[9] = system: Staphylococcus aureus ATCC 25923
[10] = system: Staphylococcus epidermidis ATCC 12228
Streptococcus agalactiae = system: Streptococcus agalactiae
[11] = system: Bacillus subtilis ATCC 6051
[12] = system: Escherichia coli NEB5alpha
Aureobasidium pullulans = system: Aureobasidium pullulans
Bacillus megaterium = system: Bacillus megaterium
[13] = system: Bacillus subtilis ATCC 23857
[14] = system: Candida albicans ATCC 10231
[15] = system: Corynebacterium glutamicum ATCC 13032
Micrococcus luteus = system: Micrococcus luteus
[16] = system: Pseudomonas aeruginosa ATCC 27853
[17] = system: Staphylococcus aureus ATCC 9144
Bacillus subtilis C971 = system: Bacillus subtilis C971
[18] = system: Corynebacterium xerosis C875
[19] = system: Enterococcus faecalis C625
Escherichia coli DC2 = system: Escherichia coli DC2
Escherichia coli UB1005 = system: Escherichia coli UB1005
[20] = system: Pseudomonas aeruginosa H187
[21] = system: Pseudomonas aeruginosa H188
[22] = system: Salmonella typhimurium C587
[23] = system: Salmonella typhimurium C610
[24] = system: Staphylococcus aureus SAP 0017
[25] = system: Staphylococcus epidermidis C621
[26] = system: Bacillus subtilis MTCC 2763
[27] = system: Escherichia coli MTCC 723
[28] = system: Pseudomonas aeruginosa MTCC 2295
[29] = system: Staphylococcus aureus ATCC BAA-1720
[30] = system: Staphylococcus aureus MTCC 3160
[31] = system: Staphylococcus epidermidis ATCC 51625

Structure (SMILES): CC(C)C[C@H](NC(=O)[C@H](CC(=O)O)NC(=O)[C@H](CCCCN)NC(=O)[C@@H](N)Cc1ccccc1)C(=O)NCC(=O)N[C@@H](CCC(=O)O)C(=O)N[C@@H](CCC(=O)O)C(=O)N[C@@H](CC(N)=O)C(=O)N[C@@H](Cc1ccccc1)C(=O)N[C@@H](CCCCN)C(=O)O [FKDLGEENFK]
- MIC [1]: ≥ 2450 µM
- MIC (Escherichia coli): 2450 µM (≈ 3000 µg/mL)
- MIC (Staphylococcus aureus): 2450 µM (≈ 3000 µg/mL)

Structure (SMILES): CC[C@H](C)[C@H](NC(=O)[C@H](CCCN=C(N)N)NC(=O)[C@H](CCC(N)=O)NC(=O)[C@@H](NC(=O)[C@@H](NC(=O)[C@H](CCCN=C(N)N)NC(=O)[C@H](CCCCN)NC(=O)[C@H](Cc1ccccc1)NC(C)=O)[C@@H](C)CC)C(C)C)C(=O)N[C@@H](CCCCN)C(=O)N[C@@H](CC(=O)O)C(=O)N[C@@H](CC(C)C)C(=O)N[C@@H](CC(C)C)C(=O)N[C@@H](CCCN=C(N)N)C(N)=O [FKRIVQRIKDLLR]
- MIC (Bacillus subtilis DELTA): ≥ 119 µM
- MIC (Candida parapsilosis): ≥ 119 µM
- MIC [2]: ≥ 119 µM
- MIC [3]: 23.7 µM (≈ 41 µg/mL)
- MIC [4]: 23.7 µM (≈ 41 µg/mL)

Structure (SMILES): CC[C@H](C)[C@H](NC(=O)[C@H](CCCCN)NC(=O)[C@H](CCCN=C(N)N)NC(=O)CNC(=O)[C@H](CC(C)C)NC(=O)[C@H](CO)NC(=O)[C@H](CCCN=C(N)N)NC(=O)[C@H](CC(C)C)NC(=O)CNC(=O)CN)C(=O)N[C@@H](CC(C)C)C(=O)N[C@@H](CCCN=C(N)N)C(=O)N[C@@H](C)C(=O)N[C@@H](Cc1c[nH]c2ccccc12)C(=O)N[C@@H](CCCCN)C(=O)N[C@@H](CCCCN)C(=O)N[C@@H](Cc1ccc(O)cc1)C(=O)NCC(=O)N1CCC[C@H]1C(=O)N[C@@H](CCC(N)=O)C(=O)N[C@@H](C)C(=O)N[C@H](C(=O)N1CCC[C@H]1C(=O)N[C@@H](C)C(=O)N[C@H](C(=O)N[C@@H](CCCN=C(N)N)C(=O)N[C@@H](CCC(N)=O)C(N)=O)[C@@H](C)O)[C@@H](C)O [GGLRSLGRKILRAWKKYGPQATPATRQ]
- MIC (Bacillus megaterium Bm11): 2 µM (≈ 6.02 µg/mL)
- MIC (Candida albicans): 8 µM (≈ 24.1 µg/mL)
- MIC (Cryptococcus neoformans): 4 µM (≈ 12 µg/mL)
- MIC (Enterococcus faecium): 22.6 µM (≈ 68.1 µg/mL)
- MIC [5]: 1 µM (≈ 3.01 µg/mL)
- MIC (Escherichia coli ML-35): 0.5 µM (≈ 1.5 µg/mL)
- MIC [6]: 2 µM (≈ 6.02 µg/mL)
- MIC [7]: 1 µM (≈ 3.01 µg/mL)
- MIC [8]: 4 µM (≈ 12 µg/mL)
- MIC (Serratia marcescens): 4 µM (≈ 12 µg/mL)
- MIC [9]: 8 µM (≈ 24.1 µg/mL)
- MIC (Staphylococcus aureus): > 64 µM and 32 µM
- MIC [10]: 2 µM (≈ 6.02 µg/mL)
- MIC (Streptococcus agalactiae): 1.41 µM (≈ 4.26 µg/mL)

Structure (SMILES): CC[C@H](C)[C@H](NC(=O)[C@H](C)NC(=O)CNC(=O)[C@H](CCCCN)NC(=O)[C@H](CCC(=O)O)NC(=O)[C@H](CCC(=O)O)NC(=O)[C@H](CC(=O)O)NC(=O)[C@H](CCC(=O)O)NC(=O)[C@H](CC(N)=O)NC(=O)[C@H](CCCN=C(N)N)NC(=O)CN)C(=O)N[C@H](C(=O)N[C@@H](CCCCN)C(=O)N[C@H](C(=O)N[C@@H](CCCCN)C(=O)NCC(=O)NCC(=O)N[C@@H](CC(C)C)C(=O)O)C(C)C)C(C)C [GRNEDEEKGAIVKVKGGL]
- MIC [11]: ≥ 1000 µM
- MIC [12]: ≥ 1000 µM

Structure (SMILES): C[C@H](NC(=O)[C@H](CCCN=C(N)N)NC(=O)[C@H](Cc1c[nH]c2ccccc12)NC(=O)[C@H](Cc1c[nH]c2ccccc12)NC(=O)[C@H](Cc1c[nH]c2ccccc12)NC(=O)[C@@H]1CCCN1C(=O)[C@H](CCCN=C(N)N)NC(=O)[C@H](CCCN=C(N)N)NC(=O)CN)C(=O)N[C@@H](CCCN=C(N)N)C(N)=O [GRRPWWWRAR]
- MIC (Aureobasidium pullulans): 21.9 µM (≈ 31.3 µg/mL)
- MIC (Bacillus megaterium): 0.701 µM (≈ 0.999 µg/mL)
- MIC [13]: 2.73 µM (≈ 3.9 µg/mL)
- MIC [14]: 21.9 µM (≈ 31.3 µg/mL)
- MIC [15]: 1.4 µM (≈ 2 µg/mL)
- MIC [5]: 5.47 µM (≈ 7.79 µg/mL)
- MIC (Micrococcus luteus): 2.73 µM (≈ 3.9 µg/mL)
- MIC [16]: 21.9 µM (≈ 31.3 µg/mL)
- MIC [17]: 5.47 µM (≈ 7.79 µg/mL)

Structure (SMILES): CC[C@H](C)[C@H](NC(=O)[C@H](C)NC(=O)[C@H](CCCCN)NC(=O)[C@H](CC(C)C)NC(=O)[C@H](C)NC(=O)[C@@H](NC(=O)[C@H](Cc1cnc[nH]1)NC(=O)[C@H](CC(C)C)NC(=O)[C@@H](NC(=O)[C@@H](NC(=O)[C@H](CCCCN)NC(=O)[C@@H](NC(=O)[C@H](C)NC(=O)CNC(=O)[C@H](CCCCN)NC(=O)[C@H](Cc1ccccc1)NC(=O)[C@@H](NC(=O)[C@H](CCCCN)NC(=O)[C@H](CC(C)C)NC(=O)[C@H](Cc1ccccc1)NC(=O)[C@H](CO)NC(=O)[C@H](CCCCN)NC(=O)[C@H](Cc1c[nH]c2ccccc12)NC(=O)[C@H](CCCCN)NC(C)=O)[C@@H](C)O)C(C)C)[C@@H](C)O)C(C)C)[C@@H](C)O)C(=O)N[C@@H](CO)C(=O)N[C@@H](CO)C(N)=O [KWKSFLKTFKGAVKTVLHTALKAISS]
- MIC (Bacillus subtilis C971): 0.692 µM (≈ 2.03 µg/mL)
- MIC [18]: 0.692 µM (≈ 2.03 µg/mL)
- MIC [19]: 4.39 µM (≈ 12.9 µg/mL)
- MIC (Escherichia coli DC2): 0.865 µM (≈ 2.54 µg/mL)
- MIC (Escherichia coli UB1005): 1.73 µM (≈ 5.07 µg/mL)
- MIC [20]: 1.38 µM (≈ 4.06 µg/mL)
- MIC [21]: 3.49 µM (≈ 10.2 µg/mL)
- MIC [22]: 4.39 µM (≈ 12.9 µg/mL)
- MIC [23]: 1.11 µM (≈ 3.25 µg/mL)
- MIC [9]: 2.77 µM (≈ 8.11 µg/mL)
- MIC [24]: 1.73 µM (≈ 5.07 µg/mL)
- MIC [25]: 1.38 µM (≈ 4.06 µg/mL)

Structure (SMILES): NC(=O)[C@H](CCCN=C(N)N)NC(=O)[C@H](Cc1c[nH]c2ccccc12)NC(=O)[C@H](Cc1c[nH]c2ccccc12)NC(=O)[C@H](CCCN=C(N)N)NC(=O)[C@@H](N)Cc1c[nH]c2ccccc12 [WRWWR]
- MIC [26]: ≥ 56.2 µM
- MIC [27]: ≥ 45 µM
- MIC [28]: ≥ 78.7 µM
- MIC [29]: 19.7 µM (≈ 17.5 µg/mL)
- MIC [30]: 16.9 µM (≈ 15 µg/mL)
- MIC [31]: 22.5 µM (≈ 20 µg/mL)
